Results as given in patent US20230192715A1 (priority 2020, published 2023).

Columns and labels:
PD95, GluR1 = conditions: in vivo; cited from earlier work
[1] = Double-blind placebo controlled randomized clinical trial in major depressive disorder; assay type: in vivo, human
BDNF = conditions: humans; plasma, healthy volunteers, 14-day Phase 1 study; cited from earlier work
mRNA for NMDAR1 = conditions: in vitro; cited from earlier work
serotonin receptors = conditions: Rickli et al, 2018; cited from earlier work

In the case of `CCC(=O)C(C[C@H](C)N(C)C)(c1ccccc1)c1ccccc1` [Dextromethadone], the “levels of PD95, GluR1” value (PD95, GluR1) is listed as “increases levels of PD95, GluR1”, the persistence of remission ([1]; after discontinuation of treatment) is listed as “persisted for at least seven days after discontinuation of treatment” and the “patients with remission of disease (MADRS<10)” value ([1]; within the first week of treatment, 5% in patients randomized to placebo) is listed as “over 30%”. The BDNF (BDNF) was “increases BDNF” and the “mRNA for NMDAR1” value (mRNA for NMDAR1) was “increases mRNA for NMDAR1”.
For `CN1CC[C@@]23c4c5ccc(O)c4O[C@@H]2[C@H](O)C=C[C@@H]3[C@@H]1C5` [Levomorphine], the “actions at serotonin receptors” value (serotonin receptors) is given as “no actions at serotonin receptors”.
